Here are results for four molecules from patent US20200179488A1, “Secretin Receptor Agonists to Treat Diseases or Disorders of Energy Homeostasis” (Technische Universität München, priority 2016, published 2020).

One assay deals with adrenergic β-receptors. Put plainly: SCT- and ISO-stimulated respiration in primary brown adipocytes after propranolol pretreatment. The format is cell-based, Mus musculus. The procedure: SCT- and ISO-stimulated respiration after 1 h pretreatment with different concentrations propranolol, a non-selective blocker of adrenergic β-receptors.
(§1) Method: To test whether SCT can activate thermogenesis in brown adipocytes, we measured UCP1-mediated uncoupled respiration in cultured adherent intact primary brown adipocytes, according to a protocol recently established in our lab (Li Y, Fromme T, Schweizer S, Schöttl T, Klingenspor M. EMBO Rep. 2014 October; 15(10):1069-76. doi: 10.15252/embr.201438775; Li Y, Fromme T, Klingenspor M. Meaningful respirometric measurements of UCP1-mediated thermogenesis. Biochimie. 2017 March; 134:56-61. doi: 10.1016/j.biochi.2016.12.005.). The cellular oxygen consumption rate (OCR) of primary adipocytes was determined using an XF96 Extracellular Flux Analyzer (Seahorse Bioscience). Briefly, primary adipocytes were cultured and differentiated in XF96 microplates. […]
All respiration assays were performed in the presence of bovine serum albumin to buffer free fatty acid levels in the respiration medium. Basal respiration was measured in untreated cells. […] UCP1 mediated uncoupled respiration was determined after isoproterenol or secretin stimulation. Maximum respiratory capacity was assessed after FCCP (Sigma-Aldrich) addition (1 μM). […] Oxygen consumption rates were automatically calculated by the Seahorse XF-96 software. […]

Assay [1] addresses secretin receptor (mouse, on primary brown adipocytes) (mouse) (UniProt Q5FWI2). Put plainly: cell-based or functional assay.
Sequence of UniProt Q5FWI2 (Q5FWI2 29-447): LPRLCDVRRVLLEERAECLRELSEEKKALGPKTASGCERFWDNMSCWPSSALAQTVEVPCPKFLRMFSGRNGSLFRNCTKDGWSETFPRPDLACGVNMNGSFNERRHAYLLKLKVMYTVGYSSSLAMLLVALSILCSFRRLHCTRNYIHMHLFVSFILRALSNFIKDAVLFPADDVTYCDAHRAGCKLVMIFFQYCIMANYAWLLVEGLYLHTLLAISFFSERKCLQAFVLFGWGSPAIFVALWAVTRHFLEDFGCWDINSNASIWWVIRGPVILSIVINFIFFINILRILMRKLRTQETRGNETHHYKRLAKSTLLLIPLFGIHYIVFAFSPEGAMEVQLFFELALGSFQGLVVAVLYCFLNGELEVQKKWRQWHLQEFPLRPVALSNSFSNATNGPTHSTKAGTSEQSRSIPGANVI
Another assay concerns Protein Kinase A. Put plainly: SCT-stimulated respiration in primary brown adipocytes after pretreatment with the PKA inhibitor H89. The format is cell-based, Mus musculus. The note with it: H89 50 μM pretreatment (FIG. 10F). As for the experimental part:
F: Thermogenic effect of SCT depends on Protein Kinase A activity. Fold increase of basal leak respiration after stimulation with ISO, SCT and vehicle (assay medium) w/o proteinkinase A inhibitor H89 (50 μM). Inhibitor was injected together with olgio prior to addition of stimulators.
as §1, with “Bioscience).” for “Bioscience). Briefly, primary adipocytes were cultured and differentiated in XF96 microplates.”
All respiration assays were performed in the presence of bovine serum albumin to buffer free fatty acid levels in the respiration medium. Basal respiration was measured in untreated cells. […] UCP1 mediated uncoupled respiration was determined after isoproterenol or secretin stimulation. Maximum respiratory capacity was assessed after FCCP (Sigma-Aldrich) addition (1 μM). […]

The test system of assay [2] is primary brown adipocytes from UCP1 knockout mice. The assay can be described thus: Microplate respirometry (oxygen consumption rate) in primary brown adipocytes from UCP1 knockout mice. The format is cell-based, Mus musculus. As for the experimental part:
For culturing primary adipocytes male 129S1/SvImJ mice ([…] or UCP1-KO mice and wildtype littermates) at the age of 5-6 weeks were used for the dissection of inguinal and epidydimal white adipose tissue and interscapular brown adipose tissue depots. The tissue was carefully minced and treated with collagenase for 45 min at 37° C. The homogenate was filtered through a 250 μm nylon mesh and centrifuged at 500 g to collect the stromal vascular fraction (SVF). The SVF cell pellet was rinsed and seeded into XF96 V3-PS cell culture microplate (Seahorse Bioscience). After reaching confluency, induction medium containing 10% fetal bovine serum (FBS), 0.5 mM isobutylmethylxanthine, 125 nM indomethacin, 1 mM dexamethasone, 850 nM insulin and 1 nM T3 was added. After 2 days of induction, cells were maintained in differentiation media (10% FBS, 850 nM insulin and 1 nM T3). Medium was changed every two days. Respiration was measured on day 7 of differentiation. For determination of mRNA levels cells were stimulated at the 7th day of differentiation for 6 hours with secretin (rat, Tocris, Art Nr 1919) or isoproterenol (Sigma-Aldrich, Art Nr. 16504-100MG) and harvested subsequently. Oxygen consumption rate (OCR) was measured at 37° C. using a microplate respirometer (XF96 extracellular flux analyzer, Seahorse Bioscience). At day 7, the differentiation medium was replaced with prewarmed, unbuffered assay medium (DMEM basal medium supplemented with 25 mM glucose, 2 mM sodium pyruvate, 31 mM NaCl, 2 mM GlutaMax and 15 mg/l phenol red, pH 7.4) containing 2% of essentially fatty acid free bovine serum albumin (BSA), and incubated at 37° C. in a room air incubator for 1 h. Basal respiration was measured in untreated cells. […] Maximum respiratory capacity was assessed after FCCP (Sigma-Aldrich) addition (1 μM). […] Oxygen consumption rates were calculated using the Seahorse XF-96 software. […] For induction of OCR by isoproterenol, secretin or FCCP the highest values measured after addition of the respective molecule was used. The “OCR in % of basal OCR” and “OCR in % of FCCP OCR” were calculated as follows: Method: To test whether SCT can activate thermogenesis in brown adipocytes, we measured UCP1-mediated uncoupled respiration in cultured adherent intact primary brown adipocytes, according to a protocol recently established in our lab (Li Y, Fromme T, Schweizer S, Schöttl T, Klingenspor M. EMBO Rep. 2014 October; 15(10):1069-76. doi: 10.15252/embr.201438775; […]. Meaningful respirometric measurements of UCP1-mediated thermogenesis. Biochimie. 2017 March; 134:56-61. doi: 10.1016/j.biochi.2016.12.005.). The cellular oxygen consumption rate (OCR) of primary adipocytes was determined using an XF96 Extracellular Flux Analyzer (Seahorse Bioscience). […]

Assay [3] relates to UCP1 expression. The assay can be described thus: UCP1 mRNA expression (qRT-PCR) in primary adipocytes from interscapular brown adipose tissue. The format is cell-based, Mus musculus. The note with it: 0.1 μM secretin or 0.5 μM isoproterenol, 6 hours, normalized to TFIIB (FIG. 4B). The procedure:
(§2) For culturing primary adipocytes male 129S1/SvImJ mice ([…] or UCP1-KO mice and wildtype littermates) at the age of 5-6 weeks were used for the dissection of inguinal and epidydimal white adipose tissue and interscapular brown adipose tissue depots. The tissue was carefully minced and treated with collagenase for 45 min at 37° C. The homogenate was filtered through a 250 μm nylon mesh and centrifuged at 500 g to collect the stromal vascular fraction (SVF). The SVF cell pellet was rinsed and seeded into XF96 V3-PS cell culture microplate (Seahorse Bioscience). After reaching confluency, induction medium containing 10% fetal bovine serum (FBS), 0.5 mM isobutylmethylxanthine, 125 nM indomethacin, 1 mM dexamethasone, 850 nM insulin and 1 nM T3 was added. […] Respiration was measured on day 7 of differentiation. […] RNA was eluted in 50 μl nuclease-free water and RNA concentration was determined spectrophotometrically (Infinite 200 PRO NanoQuant, Tecan, Männedorf/Switzerland). Reverse transcription into cDNA was performed with 500 ng RNA in a final volume of 10 μl (Quantitect Reverse Transcription Kit, Quiagen, Hilden/Germany). qRT-PCR was conducted on 384 well plates in a total volume of 12.5 μl comprising 6.25 μl SensiMix SYBR No-ROX (Bioline, London/UK), 250 nM forward and reverse primers, and 1 μl template cDNA (LightCycler 480 System, Roche Diagnostics, Rotkreuz/Switzerland). […]
Background: Real-time PCR tracks product formation cycle by cycle.

The next assay deals with primary brown adipocytes. Put plainly: Microplate respirometry (oxygen consumption rate) in differentiated primary brown adipocytes of wildtype mice. The format is cell-based, Mus musculus. The procedure: For culturing primary adipocytes male 129S1/SvImJ mice ([…] or UCP1-KO mice and wildtype littermates) at the age of 5-6 weeks were used for the dissection of inguinal and epidydimal white adipose tissue and interscapular brown adipose tissue depots. The tissue was carefully minced and treated with collagenase for 45 min at 37° C. The homogenate was filtered through a 250 μm nylon mesh and centrifuged at 500 g to collect the stromal vascular fraction (SVF). The SVF cell pellet was rinsed and seeded into XF96 V3-PS cell culture microplate (Seahorse Bioscience). After reaching confluency, induction medium containing 10% fetal bovine serum (FBS), 0.5 mM isobutylmethylxanthine, 125 nM indomethacin, 1 mM dexamethasone, 850 nM insulin and 1 nM T3 was added. After 2 days of induction, cells were maintained in differentiation media (10% FBS, 850 nM insulin and 1 nM T3). Medium was changed every two days. Respiration was measured on day 7 of differentiation. For determination of mRNA levels cells were stimulated at the 7th day of differentiation for 6 hours with secretin (rat, Tocris, Art Nr 1919) or isoproterenol (Sigma-Aldrich, Art Nr. 16504-100MG) and harvested subsequently. Oxygen consumption rate (OCR) was measured at 37° C. using a microplate respirometer (XF96 extracellular flux analyzer, Seahorse Bioscience). At day 7, the differentiation medium was replaced with prewarmed, unbuffered assay medium (DMEM basal medium supplemented with 25 mM glucose, 2 mM sodium pyruvate, 31 mM NaCl, 2 mM GlutaMax and 15 mg/l phenol red, pH 7.4) containing 2% of essentially fatty acid free bovine serum albumin (BSA), and incubated at 37° C. in a room air incubator for 1 h. Basal respiration was measured in untreated cells. Coupled respiration was inhibited by oligomycin treatment (5 μM). […] Maximum respiratory capacity was assessed after FCCP (Sigma-Aldrich) addition (1 μM). Finally, mitochondrial respiration was blocked by antimycin A (Sigma-Aldrich) (5 μM) treatment and the residual OCR was considered to be due to non-mitochondrial reactions. Oxygen consumption rates were calculated using the Seahorse XF-96 software. Data were exported and reconstructed in GraphPad Prism 4.0 software. For each condition the lowest OCR after antimycin A addition was subtracted from all other values. Respiration rates following oligomycin addition were defined as basal OCR. For induction of OCR by isoproterenol, secretin or FCCP the highest values measured after addition of the respective molecule was used. The “OCR in % of basal OCR” and “OCR in % of FCCP OCR” were calculated as follows: Method: To test whether SCT can activate thermogenesis in brown adipocytes, we measured UCP1-mediated uncoupled respiration in cultured adherent intact primary brown adipocytes, according to a protocol recently established in our lab (Li Y, Fromme T, Schweizer S, Schöttl T, Klingenspor M. EMBO Rep. 2014 October; 15(10):1069-76. doi: 10.15252/embr.201438775; […]. Meaningful respirometric measurements of UCP1-mediated thermogenesis. Biochimie. 2017 March; 134:56-61. doi: 10.1016/j.biochi.2016.12.005.). The cellular oxygen consumption rate (OCR) of primary adipocytes was determined using an XF96 Extracellular Flux Analyzer (Seahorse Bioscience). Briefly, primary adipocytes were cultured and differentiated in XF96 microplates. At day 7 of differentiation, cells were washed once with prewarmed, unbuffered assay medium (DMEM basal medium supplemented with 25 mM glucose, 31 mM NaCl, 2 mM GlutaMax and 15 mg/l phenol red, pH 7.4) (basal assay medium) and then the medium was replaced with basal assay medium containing 1-2% essentially fatty acid free bovine serum albumin (BSA), and incubated at 37° C. in a room air incubator for 1 h. The drug injections ports of the sensor cartridges were loaded with the assay reagents at 10× in basal assay medium (no BSA). All respiration assays were performed in the presence of bovine serum albumin to buffer free fatty acid levels in the respiration medium. […]

In assay [4] the test system is UCP1 expression. The assay can be described thus: UCP1 mRNA expression (qRT-PCR) in primary adipocytes from inguinal white adipose tissue. The format is cell-based, Mus musculus. Conditions: 0.1 μM secretin or 0.5 μM isoproterenol, 6 hours, normalized to TFIIB (FIG. 4A). As for the experimental part:
as §2

Turning to `CC(C)NCC(O)COc1cccc2ccccc12` (stereo not shown) [propranolol], the “effect on SCT stimulated respiration” value in the assay on adrenergic β-receptors (1 h pretreatment with propranolol (1 μM; different concentrations in FIG. 10D)) is on record as “did not attenuate SCT stimulated respiration”. Moreover, the “effect on ISO stimulated respiration” value in the assay on adrenergic β-receptors (1 h pretreatment with propranolol, dose dependent (FIG. 10D)) is reported as “blocking the effect of ISO”.

In assay [1], “secretin (rat, Tocris, Art Nr 1919) (from UniProt P11384 33-59) (peptide)” yielded an oxygen consumption rate (OCR) in primary brown adipocytes, increase above basal OCR, 0.5 µM secretin (% above basal OCR) of 200 and an uncoupled OCR in primary brown adipocytes as a share of maximal uncoupled OCR induced by FCCP, 0.5 µM secretin (% of maximal uncoupled OCR) of 75.

Turning to `O=S(=O)(NCCNCC=Cc1ccc(Br)cc1)c1cccc2cnccc12` [H89, N-[2-[[3-(4-Bromophenyl)-2-propenyl]amino]ethyl]-5-isoquinolinesulfonamide], the “effect on the thermogenic effect of SCT” value with Protein Kinase A is recorded as “completely blocked the thermogenic effect of SCT”.

On to `CC(C)NCC(O)c1ccc(O)c(O)c1` (stereo not shown) [isoproterenol, reference compound], for which the “induction of respiration in cells from UCP1 knockout mice” value in assay [2] (129/S1 background, FIG. 3) is “lacking”. Also, the “response of respiration in UCP1 knockout brown adipocytes” value in assay [2] (SCT 10 nM, ISO 500 nM (FIG. 10B)) is recorded as “did not respond”. In addition, the “UCP1 mRNA expression in brown adipocytes versus PBS” value in the assay with UCP1 expression [3] is reported as “induced UCP1 expression to a similar level as secretin”. Moreover, the “increase of OCR above basal OCR” value in the assay with primary brown adipocytes (0.5 μM, after oligomycin, day 7 of differentiation (FIG. 2B)) is on record as “about 200%”. The “uncoupled OCR as share of maximal uncoupled OCR induced by FCCP” value with primary brown adipocytes (0.5 μM, day 7 of differentiation (FIG. 2C)) is “about 75%”. The “induction of oxygen consumption in cells from wildtype control mice” value in the assay on primary brown adipocytes (129/S1 background, FIG. 3) was “increase in oxygen consumption”. In addition, in the assay with primary brown adipocytes (SCT 10 nM, ISO 500 nM, N=5 (FIG. 10A)), the “stimulation of UCP1-mediated thermogenesis (uncoupled respiration)” value is reported as “activate UCP1-dependent thermogenesis”. Also, in the assay with UCP1 expression [4], the “UCP1 mRNA expression in white adipocytes versus PBS” value is “induction of UCP1 expression”.
